We go through five molecules from patent US7259002B2, “Polynucleotide encoding a novel acyl coenzyme A, monoacylglycerol acyltransferase-3 (MGAT3), and uses thereof” (Bristol-Myers Squibb Company, priority 2003, dated 2007).

What all share (format): biochemical
For one data set, the target named is T1, recombinant human MGAT3 (Homo sapiens, UniProt Q86VF5).
T1 construct: predicted to contain the entire open reading frame, was chosen for further study; made in house; host or cells: Spodoptera frugiperda Sf9 insect cells (baculovirus, Bac-to-Bac); 100,000 x g membrane fractions
T1 sequence (Q86VF5 1-341): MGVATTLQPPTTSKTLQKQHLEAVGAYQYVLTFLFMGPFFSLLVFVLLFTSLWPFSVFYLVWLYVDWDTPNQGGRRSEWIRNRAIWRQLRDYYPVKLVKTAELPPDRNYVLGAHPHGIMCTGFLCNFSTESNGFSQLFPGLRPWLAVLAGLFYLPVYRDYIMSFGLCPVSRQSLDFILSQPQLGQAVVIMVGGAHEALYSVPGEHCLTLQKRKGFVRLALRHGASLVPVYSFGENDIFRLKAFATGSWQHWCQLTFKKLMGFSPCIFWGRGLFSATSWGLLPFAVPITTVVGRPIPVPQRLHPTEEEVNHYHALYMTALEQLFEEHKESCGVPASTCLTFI
In words: Substrate concentration titration and substrate specificity in the MGAT enzyme assay. The note with it: for optimal substrate concentration: 10 μg membrane fractions, 10 min at 37° C.; for substrate optimum for acyl-CoAs: acyl-CoAs at 50 μM, 200 μM sn-2-[3H]monooleoylglycerol tracer. How it is done:
Sf9 cells were setup and infected with either wild type or recombinant MGAT3 viruses as in FIG. 4. After 2 days of infection, the cells were harvested, membrane fractions were prepared and aliquots of membranes were subjected to MGAT enzyme assays with various concentrations of substrates. For A, 200 μM sn-2-monooleoylglycerol and various amounts of [14C]oleoyl coenzyme A (20,000 dpm/nmol) and for B, 50 μM [14C]oleoyl coenzyme A (20,000 dpm/nmol) and various amounts of sn-2-monooleoylglycerol were incubated with 10 μg membrane fractions for 10 min at 37° C. Lipid bands corresponding to TAG and DAG were cut from TLC sheets and counted with scintillation counter. Activities were corrected values of recombinant membranes deducted by values of wild type membranes. Duplicated assays were conducted and the standard deviations were smaller than 10% of the mean.
Sf9 cells were setup and infected either with wild type, recombinant MGAT3 or with DGAT2 viruses as in FIG. 4. Aliquots of membrane fractions (10 μg) were subjected to MGAT assays to determine A) MAG stereoisomer specificity and B) preference of fatty acyl-CoAs. In A, 50 μM [14C]oleoyl coenzyme A (20,000 dpm/nmol) and 200 μM of sn-1-monooleoyglycerol (1-MAG), sn-2-monooleoyglycerol (2-MAG), or […] (3-MAG); and in B, 200 μM sn-2-[3H]monooleoylglycerol (20,000 dpm/nmol) and different acyl-CoAs at 50 μM were incubated with 10 μg membrane fractions at 37° C. for 10 min. C2, acetyl-CoA; M, malonyl-CoA; C4:0, butyryl-CoA; C12:0, lauroyl-CoA; C16:0, palmitoyl-CoA; C18:0, stearoyl-CoA; C20:0, arachidoyl-CoA; C18:1, oleoyl-CoA; C18:2, linoleoyl-CoA; C20:4, arachidonoyl-CoA.
MGAT activities were assayed for 5-10 min at 37° C. in a final volume of 200 μl according to a protocol modified from Coleman (Coleman, R. A. (1992) Methods Enzymol. 209:98-104). Each reaction contained 10 μg of membrane proteins in Assay Buffer (100 mM Tris-HCl, pH7.5, 5 mM MgCl2, 1.25 mg/ml BSA, 250 mM sucrose, 800 μM phophatidylcholine liposomes). Generally, 50 μM of acyl coenzyme A and 200 μM sn-2-monoacylglycerol (delivered in acetone, final acetone concentration <2%) were used. Reactions were started by adding protein and terminated by adding 4 ml chloroform/methanol (2/1, v/v). The extracted lipids were dried, separated by thin layer chromatography (TLC) with hexane/ethyl ether/acetic acid (85/15/0.5, v/v/v).
Identities of triacylglycerol (TAG), diacylglycerol (DAG), monoacylglycerol (MAG), free fatty acid (FFA) and other lipids were verified with lipid standards (Sigma) after staining with iodine vapor. The specific enzyme activities were traced by measuring the incorporation of [14C]oleoyl-CoA (20,000 dpm/nmol) or sn-2-[3H] monooleolyglycerol (20,000 dpm/nmol). Chromatograms were also analyzed with STORM PhosphoImager.

A short description of data set [1]: MGAT enzyme assay (TLC, scintillation counting) of membranes from Sf9 cells expressing the recombinant enzyme. The conditions noted are these: 50 μM [14C]oleoyl coenzyme A. On the procedure: Sf9 cells were setup and infected with wild type or recombinant MGAT3 viruses as in FIG. 4. Membrane extracts were prepared from the cells with various post infection times. Aliquots of membrane fractions were either subjected to A) immunoblot analysis with anti-FLAG IgG; or to B) TLC enzyme assays. For substrates, 200 μM sn-2-monooleoylglycerol and 50 μM [14C]oleoyl coenzyme A (20,000 dpm/nmol) were incubated with 10 μg membrane fractions for 6 min at 37° C. After TLC separation, the DAG and the TAG bands were cut from TLC sheets and subjected to scintillation counting. The activities were expressed as nmol/min/mg protein. Values were averages of duplicated determinations and the standard deviations were smaller than 10% of the mean.
The predicted coding sequence of human MGAT3 was fused with an NH2-terminal FLAG epitope (MGDYKDDDDG, (SEQ ID NO:21) epitope underlined) and expressed in Spodoptera frugiperda (Sf9) insect cells using Bac-to-Bac™ kit (Life Technologies) according to manufacturer's instructions. Recombinant FLAG-human-DGAT2 was expressed in the same manner as a control. Generally, cells were infected with viruses (MOI>3) for 2 days. After harvest, cells were washed with PBS, and then homogenized with a probe sonicator in Homogenization Buffer (10 mM Tris-HCl, pH 7.4, 250 mM sucrose, 1× Protease Inhibitor Cocktail [Roche]). Membrane fractions (100,000×g pellets) were stored at −80° C. until use for enzymatic assays. For immunoblot analysis, aliquots of 2 μg of membrane proteins were loaded on SDS-PAGE and probed with an anti-FLAG M2 IgG (Sigma).
MGAT activities were assayed for 5-10 min at 37° C. in a final volume of 200 μl according to a protocol modified from Coleman (Coleman, R. A. (1992) Methods Enzymol. 209:98-104). […]
Identities of triacylglycerol (TAG), diacylglycerol (DAG), monoacylglycerol (MAG), free fatty acid (FFA) and other lipids were verified with lipid standards (Sigma) after staining with iodine vapor. […] Chromatograms were also analyzed with STORM PhosphoImager.

The nature of data set [2]: DGAT activity: exogenous DAG assayed directly with recombinant membranes (TLC). The conditions noted are these: Sf9 membranes, [14C]oleoyl-CoA tracer.
The mark [3] stands for this setting: Sf9 cell membranes, 200 μM sn-2-monooleoylglycerol, 6 min at 37° C., highest value of time course.

Regarding `CCCCCCCC/C=C\CCCCCCCC(=O)OC(CO)CO` [2-monooleoylglycerol, sn-2-monooleoylglycerol], the optimal substrate concentration at recombinant human MGAT3 was 200 µM. The “MAG stereoisomer specificity (DAG synthesis)” value at recombinant human MGAT3 (200 μM MAG, 50 μM [14C]oleoyl coenzyme A) is “prefers 2-MAG as the substrate”.
Regarding `CCCCCCCC/C=C\CCCCCCCC(=O)SCCNC(=O)CCNC(=O)[C@H](O)C(C)(C)COP(=O)(O)OP(=O)(O)OC[C@H]1O[C@@H](n2cnc3c(N)ncnc32)[C@H](O)[C@@H]1OP(=O)(O)O` [oleoyl-CoA], on recombinant human MGAT3, the optimal substrate concentration turned out to be 50 µM and the “substrate optimum for acyl-CoAs” value is listed as “best substrates”.
For `CCCCCCCCCCCCCCCC(=O)SCCNC(=O)CCNC(=O)[C@H](O)C(C)(C)COP(=O)(O)OP(=O)(O)OC[C@H]1O[C@@H](n2cnc3c(N)ncnc32)[C@H](O)[C@@H]1OP(=O)(O)O` [palmitoyl-CoA], on recombinant human MGAT3, the “substrate optimum for acyl-CoAs” value was “best substrates”.

B1: MGAT3: monoacylglycerol acyltransferase-3, 341 amino acid protein of SEQ ID NO:2 (protein, listed as Homo Sapiens)
chain: MGVATTLQPPTTSKTLQKQHLEAVGAYQYVLTFLFMGPFFSLLVFVLLFTSLWPFSVFYLVWLYVDWDTPNQGGRRSEWIRNRAIWRQLRDYYPVKLVKTAELPPDRNYVLGAHPHGIMCTGFLCNFSTESNGFSQLFPGLRPWLAVLAGLFYLPVYRDYIMSFGLCPVSRQSLDFILSQPQLGQAVVIMVGGAHEALYSVPGEHCLTLQKRKGFVRLALRHGASLVPVYSFGENDIFRLKAFATGSWQHWCQLTFKKLMGFSPCIFWGRGLFSATSWGLLPFAVPITTVVGRPIPVPQRLHPTEEEVNHYHALYMTALEQLFEEHKESCGVPASTCLTFI
Turning to B1, in data set [1] (setting [3]), the “specific activity for DAG” value amounted to 22.8 nmol/min/mg and the “specific activity for TAG” value is given as 9.3 nmol/min/mg. Also, the “acylation of exogenous DAG to TAG (DGAT activity)” value in data set [2] was “able to acylate DAG to form TAG directly”.

B2: DGAT2: recombinant human diacylglycerol acyltransferase 2 expressed in the same manner as a control (protein, listed as Homo Sapiens)
chain: MKTLIAAYSGVLRGERQAEADRSQRSHGGPALSREGSGRWGTGSSILSALQDLFSVTWLNRSKVEKQLQVISVLQWVLSFLVLGVACSAILMYIFCTDCWLIAVLYFTWLVFDWNTPKKGGRRSQWVRNWAVWRYFRDYFPIQLVKTHNLLTTRNYIFGYHPHGIMGLGAFCNFSTEATEVSKKFPGIRPYLATLAGNFRMPVLREYLMSGGICPVSRDTIDYLLSKNGSGNAIIIVVGGAAESLSSMPGKNAVTLRNRKGFVKLALRHGADLVPIYSFGENEVYKQVIFEEGSWGRWVQKKFQKYIGFAPCIFHGRGLFSSDTWGLVPYSKPITTVVGEPITIPKLEHPTQQDIDLYHTMYMEALVKLFDKHKTKFGLPETEVLEVN
modifications: FLAG tag
notes: recombinant human diacylglycerol acyltransferase 2 expressed in the same manner as a control
In the case of B2, in data set [1] (Sf9 membranes, 1-MAG, 2-MAG or 3-MAG at 200 μM), the “TAG synthesis from MAG stereoisomers” value was “able to synthesize similar amount of TAG using three different MAG stereoisomers”.
